Test results taken from article PMC5058426 (Journal of porphyrins and phthalocyanines, 2016).

How the values were obtained:
HEp2 cells [1] = test: Phototoxicity, Cell Titer Blue assay; assay type: cell-based, human; conditions: 24 h
HEp2 cells [2] = test: Time-dependent cellular uptake; assay type: cell-based, human; conditions: 10 μM; for cellular accumulation compared with MPIX 3: all time points over 24 h
[3] = Fluorescence quantum yield in DMF; assay type: physicochemical; conditions: room temperature, calculated using porphyrin 3 as standard (0.102)
[4] = reference standard value; cited from earlier work
[5] = biological target: EGFR extracellular domain (Homo sapiens, UniProt P00533); test: SPR binding to immobilized EGFR; conditions: SPR sensorgram, 400 to 500 s, 100 μM
EGFR extracellular domain, sequence (P00533 25-645 limits assumed): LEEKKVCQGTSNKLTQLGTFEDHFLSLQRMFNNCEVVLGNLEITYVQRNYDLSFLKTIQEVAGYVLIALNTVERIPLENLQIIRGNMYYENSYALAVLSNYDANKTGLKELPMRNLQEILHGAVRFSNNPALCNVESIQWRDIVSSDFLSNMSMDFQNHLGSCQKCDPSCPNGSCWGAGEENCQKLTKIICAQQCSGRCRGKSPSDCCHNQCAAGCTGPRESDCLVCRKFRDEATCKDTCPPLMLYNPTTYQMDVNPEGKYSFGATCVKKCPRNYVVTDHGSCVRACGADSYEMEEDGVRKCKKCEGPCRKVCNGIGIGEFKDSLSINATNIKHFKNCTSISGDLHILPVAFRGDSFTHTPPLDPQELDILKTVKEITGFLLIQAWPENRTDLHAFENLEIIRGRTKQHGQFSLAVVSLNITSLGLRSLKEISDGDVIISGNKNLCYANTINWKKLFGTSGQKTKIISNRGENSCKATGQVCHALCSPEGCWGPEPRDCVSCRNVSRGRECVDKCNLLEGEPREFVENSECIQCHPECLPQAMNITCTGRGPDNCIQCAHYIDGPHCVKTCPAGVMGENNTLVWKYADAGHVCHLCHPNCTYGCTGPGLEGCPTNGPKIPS

CCC1=C(C)c2cc3[nH]c(cc4nc(cc5[nH]c(cc1n2)c(C)c5CCC(=O)N[C@@H](CC(C)C)C(=O)N[C@@H](C)C(=O)N[C@@H](CCCNC(=N)N)C(=O)N[C@@H](CC(C)C)C(=O)N[C@@H](CC(C)C)C(=O)N[C@H](C(N)=O)[C@@H](C)O)C(CCC(=O)N[C@@H](CC(C)C)C(=O)N[C@@H](C)C(=O)N[C@@H](CCCNC(=N)N)C(=O)N[C@@H](CC(C)C)C(=O)N[C@@H](CC(C)C)C(=O)N[C@H](C(N)=O)[C@@H](C)O)=C4C)c(C)c3CC [Compound 4]
IC50 (HEp2 cells [1]): 50 µM | cellular accumulation compared with MPIX 3 (HEp2 cells [2]): much larger extent than MPIX 3 | cellular accumulation ranking at early times (HEp2 cells [2]; times < 4 h): accumulated the most

GYHWYGYTPQNVI [Compound 8]
cellular uptake relative to MPIX 3 (HEp2 cells [2]; after 24 h): about 8 fold | cellular accumulation compared with MPIX 3 (HEp2 cells [2]): much larger extent than MPIX 3 | Φf (fluorescence quantum yield) [3]: 0.132

CCC1=C(C)c2cc3[nH]c(cc4[nH]c(cc5nc(cc1n2)C(C)=C5CC)c(C)c4CCC(=O)O)c(CCC(=O)O)c3C [Compound 3, mesoporphyrin IX]
ΦF (fluorescence quantum yield) [4]: 0.102

CCC1=C(C)c2cc3[nH]c(cc4nc(cc5[nH]c(cc1n2)c(C)c5CCC(=O)NCC(=O)N[C@@H](Cc1ccc(O)cc1)C(=O)N[C@@H](Cc1c[nH]cn1)C(=O)N[C@@H](Cc1c[nH]c2ccccc12)C(=O)N[C@@H](Cc1ccc(O)cc1)C(=O)NCC(=O)N[C@@H](Cc1ccc(O)cc1)C(=O)N[C@H](C(=O)N1CCC[C@H]1C(=O)N[C@@H](CCC(N)=O)C(=O)N[C@@H](CC(N)=O)C(=O)N[C@H](C(=O)N[C@H](C(N)=O)[C@@H](C)CC)C(C)C)[C@@H](C)O)C(CCC(=O)O)=C4C)c(C)c3CC [Compound 5]
dissociation rate from EGFR [5]: slower dissociation rates | cellular accumulation compared with MPIX 3 (HEp2 cells [2]): much larger extent than MPIX 3 | Φf (fluorescence quantum yield) [3]: 0.124

LARLLT [Compound 7]
cellular accumulation compared with MPIX 3 (HEp2 cells [2]): accumulated significantly less | Φf (fluorescence quantum yield) [3]: 0.124
